These results are taken from patent publication US20140094434A1, “AMINO ACID COMPOSITION” (AJINOMOTO CO., INC, priority 2011, published 2014).

One test deals with isolated rat hepatocytes. To be noted: Biochem. J., 1991, 273: 57-62; cited from earlier work.
The conditions of test [1]: humans; ingestion of proline; Metabolism, 2004, 53(2): 241-246; cited from earlier work.
For a further test, the system named is Male C57BL/6J mice. Put plainly: Spontaneous motor activity after 90 minutes treadmill running exercise. The class given is in vivo, mouse. To be noted: Example 5, FIG. 8; oral dextrin 2 g/kg; measured for 3 hours after 90 minutes running; vs water administration. On the procedure:
Male C57BL/6J mice were habituated to a running exercise using a treadmill, and subjected to a test. The mice were fasted overnight, and orally administered (1) dextrin 2 g/kg, or (2) dextrin 1 g/kg and L-alanine (Ala) 1 g/kg. From 15 minutes after the administration, a 90 minutes running exercise was loaded at a rate of 26 m/minute using the treadmill. After exercise loading, the mice were transferred into a cage, and the motor activity was measured using a spontaneous motor activity monitor (NS-AS01: Neuroscience Inc.) for 3 hours (dextrin and dextrin+Ala in FIG. 8). As a control, the mice administered the above-mentioned (1) or (2) were administered water instead of (1) or (2), and the spontaneous motor activity was measured in the same manner (dextrin (water administration) and dextrin+Ala (water administration) in FIG. 8). In addition, the spontaneous motor activity of mice in a resting state after fasting overnight and free of the exercise loading was measured for 3 hours in the same manner (in rest in FIG. 8).

Consider `C[C@H](N)C(=O)O` [alanine], for which the glycogen synthesis result with isolated rat hepatocytes was “enhance”.

As for `NC(=O)C[C@H](N)C(=O)O` [asparagine], the glycogen synthesis result in the test with isolated rat hepatocytes is “enhance”.

Regarding `NC(=O)CC[C@H](N)C(=O)O` [glutamine], the glycogen synthesis entry in the test with isolated rat hepatocytes was “enhance”.

`N[C@@H](Cc1c[nH]cn1)C(=O)O` [histidine]: in the test with isolated rat hepatocytes, the glycogen synthesis result is listed as “enhance”.

Regarding `O=C(O)[C@@H]1CCCN1` [proline], the glycogen synthesis entry with isolated rat hepatocytes is given as “enhance”. Further, the “increase of blood glucose level after glucose ingestion” value in test [1] is on record as “suppresses”.

In the case of dextrin, the “spontaneous motor activity after running exercise loading” value with Male C57BL/6J mice is “increased”.
